Results published in ChEMBL document CHEMBL1127057, “Synthesis, optical resolution, absolute configuration, and preliminary pharmacology of (+)- and (-)-cis-2,3,3a,4,5,9b-hexahydro-1-methyl-1H- pyrrolo-[3,2-h]isoquinoline, a structural analog of nicotine” (J Med Chem, 1993).

How the values were obtained:
Mus musculus [1] = species on record: Mus musculus; assay: Inhibition of spontaneous activity in mice; type: functional
Mus musculus [2] = species on record: Mus musculus; assay: Inhibition of tail-flick response (antinociception) in mice; type: functional
[3] = Binding affinity was evaluated towards nicotine receptor in mouse brain; type: tissue-based
Mus musculus [4] = species on record: Mus musculus; assay: Equilibrium dissociation constant (Kd) was determined

SMILES	ED50 (Mus musculus [1])	ED50 (Mus musculus [2])	Ki [3]	Kd (Mus musculus [4])
c1cc2c(cn1)C1NCCC1CC2 (racemic)	24.8 µmol/kg	25.7 µmol/kg	167 nM	–
CN1CCC2CCc3ccncc3C21 (single isomer, unassigned; (+))	7.13 µmol/kg	7.45 µmol/kg	–	–
CN1CCC2CCc3ccncc3C21 (single isomer, unassigned; (-))	61.7 µmol/kg	–	605 nM	–
CN1CCC[C@H]1c1cccnc1 [NICOTINE]	4.44 µmol/kg	4.81 µmol/kg	–	1.41 nM
